Patent publication US20250114367A1, “METHOD OF TREATING HAIR LOSS DISORDERS” (Sun Pharmaceutical Industries, Inc., priority 2023, published 2025)

Experiments:
[1] = system: adult subjects with moderate to severe AA; test: Phase III trial: Hair Satisfaction Patient Reported Outcome (SPRO); assay type: in vivo, human; parameters: key to SPRO responders, treatment difference: Common Risk Difference (Mantel-Haenszel): difference in proportion of responders (satisfied or very satisfied); settings: for SPRO Responders: No / SPRO Responders: Yes ('Very satisfied' or 'Satisfied') / SPRO Responses: 1 = Very Satisfied / SPRO Responses: 2 = Satisfied / SPRO Responses: 3 = Neither Satisfied Nor Dissatisfied / SPRO Responses: 4 = Dissatisfied / SPRO Responses: 5 = Very Dissatisfied / percentage of subjects with a ≥2 point change from baseline in SPRO / proportion of SPRO responders (very satisfied or satisfied) / percentage of SPRO responders: non-missing data; for SPRO responders, treatment difference: Common Risk Difference (Mantel-Haenszel): MI with MAR assumption
Excerpt: The SPRO is a single-item questionnaire answered by the subject and designed to measure how satisfied Alopecia Areata subjects are with their hair at the time of the assessment. Subjects answer questions on a scale of 1 to 5, representing “Very satisfied” to “Very dissatisfied.” Satisfaction categories 1-5 of the scale were defined as follows: 1=“Very Satisfied”; 2=“Satisfied”; 3=“Neither Satisfied nor Dissatisfied”; 4=Dissatisfied”; and 5=“Very Dissatisfied”.
The results of the SPRO was analyzed in three different ways: 1) the percentage of responders, 2) the change from baseline, and 3) the percentage of subjects achieving a ≥2.0 point change from baseline.
A Phase III trial was conducted to assess the efficacy and safety of CTP-543 in adult subjects with moderate to severe AA. Approximately 440 adult male and female subjects 18 to 65 years of age, inclusive, with moderate to severe AA participated in the study. Subjects with definitive diagnosis of AA, and at least 50% hair loss, as defined by a SALT score ≥50, who met all of the inclusion criteria and none of the exclusion criteria participated in the study.
The Screening Period lasted up to 28 days prior to initiation of study drug. […] Randomization was stratified by scalp hair loss into 1 of the following 2 categories: 1) partial scalp hair loss (SALT ≥50 and <95), 2) complete or near complete scalp hair loss (SALT ≥95).
The key secondary efficacy endpoints were the percentage of responders (defined as “satisfied” or “very satisfied”) on the Hair Satisfaction Patient Reported Outcome (SPRO) scale at Week 24, 20, 16, 12, and 8.
Additional secondary efficacy endpoints included the following: • Relative change in SALT scores from baseline at Weeks 4, 8, 12, 16, 20, and 24. • Percentage of responders (defined as “much improved” or “very much improved”) using the Clinical Global Impression of Improvement (CGI-I) at Weeks 12, 16, 20, and 24. • Percentage of responders (defined as “much improved” or “very much improved”) using the Patient Global Impression of Improvement (PGI-I) at Weeks 12, 16, 20, and 24. • Change from baseline in the Clinical Global Impression of Severity (CGI-S) at Weeks 12, 16, 20, and 24. • Change from baseline in the Patient Global Impression of Severity (PGI-S) at Weeks 12, 16, 20, and 24. • Change from baseline on the Brigham Eyebrow Tool for Alopecia (BETA) score at Weeks 12 and 24. • Change from baseline on the Brigham Eyelash Tool for Alopecia (BELA) score at Weeks 12 and 24. • Percentage of subjects achieving at least a 75% relative reduction in SALT score from baseline at Weeks 12 and 24. • Percentage of subjects achieving at least a 90% relative reduction in SALT score from baseline at Weeks 12 and 24. • Percentage of responders (defined as “satisfied” or “very satisfied”) on the SPRO scale at Weeks 12, 16, and 20. • Change from baseline in the SPRO scale at Weeks 12, 16, 20, and 24. • Percentage of subjects achieving a ≥2-point change from baseline in the SPRO scale at Weeks 12, 16, 20, and 24. • Change from baseline on the individual items of the Hair Quality Patient Reported Outcome (QPRO) scale at Weeks 12, 16, 20, and 24. • Change from baseline in the depression scale of the Hospital Anxiety and Depression Scale (HADS) at Week 24. • Change from baseline in the anxiety scale of the HADS at Week 24. • Percentage of subjects achieving an absolute SALT score of ≤20 at Week 4. • Percentage of subjects achieving an absolute SALT score of ≤10 at Week 24 […]

[2] = system: subjects with AA; test: Open-label extension (OLE) studies: safety
Description: Two separate OLE trials were conducted in North America (CP543.5001) and the European Union (CP543.5002). […] Both OLE trials were similarly designed, except: Trial CP543.5001 (North America) participants have the opportunity to continue in the trial for a maximum of 276 weeks; and Trial CP543.5002 (European Union) participants have the opportunity to continue in the trial for a maximum of 108 weeks.
Subjects receiving any active dose of deuruxolitinib in the qualifying trials were initially assigned to receive either 8 mg BID or 12 mg BID in the OLE trial. Subjects receiving placebo in the qualifying trial were assigned to either deuruxolitinib 8 mg BID or 12 mg BID. Subjects were allowed to switch doses during the OLE after initial treatment assignment at the discretion of the Principal Investigator.

[2H]C1([2H])C([C@@H](CC#N)n2cc(-c3ncnc4[nH]ccc34)cn2)C([2H])([2H])C([2H])([2H])C1([2H])[2H] [CTP-543, (R)-3-(4-(7H-pyrrolo[2,3-d]pyrimidin-4-yl)-1H-pyrazol-1-yl)-3-(cyclopentyl-2,2,3,3,4,4,5,5-d8) propanenitrile]
SPRO score, LS mean change from baseline ([1]; Week 12, 8 mg BID): −1.6
SPRO score, LS mean change from baseline ([1]; Week 12, 12 mg BID): −1.7
SPRO score, LS mean change from baseline ([1]; Week 16, 8 mg BID): −1.6
SPRO score, LS mean change from baseline ([1]; Week 16, 12 mg BID): −1.7
SPRO score, LS mean change from baseline ([1]; Week 20, 8 mg BID): −1.5
SPRO score, LS mean change from baseline ([1]; Week 20, 12 mg BID): −1.8
SPRO score, LS mean change from baseline ([1]; Week 24, 8 mg BID): −1.6
SPRO Responders: No ([1]; Week 24, 8 mg BID (N = 249)): 122 (53.5) n (%)
SPRO Responders: Yes ('Very satisfied' or 'Satisfied') ([1]; Week 24, 8 mg BID (N = 249)): 106 (46.5) n (%)
SPRO Responses: 1 = Very Satisfied ([1]; Week 24, 8 mg BID (N = 249)): 40 (17.5) n (%)
SPRO Responses: 2 = Satisfied ([1]; Week 24, 8 mg BID (N = 249)): 66 (38.9) n (%)
SPRO Responses: 3 = Neither Satisfied Nor Dissatisfied ([1]; Week 24, 8 mg BID (N = 249)): 34 (14.9) n (%)
SPRO Responses: 4 = Dissatisfied ([1]; Week 24, 8 mg BID (N = 249)): 34 (14.9) n (%)
SPRO Responses: 5 = Very Dissatisfied ([1]; Week 24, 8 mg BID (N = 249)): 54 (23.7) n (%)
SPRO responders, treatment difference: Common Risk Difference (Mantel-Haenszel) ([1]; Week 24, 8 mg BID compared to Placebo): 0.45
percentage of subjects with a ≥2 point change from baseline in SPRO ([1]; Week 24, 8 mg BID): 52.6%
proportion of SPRO responders (very satisfied or satisfied) ([1]; Week 24, 8 mg BID): 46.5%
SPRO score, LS mean change from baseline ([1]; Week 24, 12 mg BID): −1.8
SPRO Responders: No ([1]; Week 24, 12 mg BID (N = 127)): 58 (48.3) n (%)
SPRO Responders: Yes ('Very satisfied' or 'Satisfied') ([1]; Week 24, 12 mg BID (N = 127)): 62 (51.7) n (%)
SPRO Responses: 1 = Very Satisfied ([1]; Week 24, 12 mg BID (N = 127)): 24 (20.0) n (%)
SPRO Responses: 2 = Satisfied ([1]; Week 24, 12 mg BID (N = 127)): 38 (31.7) n (%)
SPRO Responses: 3 = Neither Satisfied Nor Dissatisfied ([1]; Week 24, 12 mg BID (N = 127)): 23 (19.2) n (%)
SPRO Responses: 4 = Dissatisfied ([1]; Week 24, 12 mg BID (N = 127)): 18 (15.0) n (%)
SPRO Responses: 5 = Very Dissatisfied ([1]; Week 24, 12 mg BID (N = 127)): 17 (14.2) n (%)
SPRO responders, treatment difference: Common Risk Difference (Mantel-Haenszel) ([1]; Week 24, 12 mg BID compared to Placebo): 0.49
percentage of subjects with a ≥2 point change from baseline in SPRO ([1]; Week 24, 12 mg BID): 61.7%
proportion of SPRO responders (very satisfied or satisfied) ([1]; Week 24, 12 mg BID): 51.7
percentage of SPRO responders ([1]; week 12, 8 mg BID): 43.2%
percentage of subjects with a ≥2 point change from baseline in SPRO ([1]; week 12, 8 mg BID): 50.4%
percentage of SPRO responders ([1]; week 12, 12 mg BID): 41.0%
percentage of subjects with a ≥2 point change from baseline in SPRO ([1]; week 12, 12 mg BID): 59.0%
percentage of SPRO responders ([1]; week 16, 8 mg BID): 41.0%
percentage of subjects with a ≥2 point change from baseline in SPRO ([1]; week 16, 8 mg BID): 52.6%
percentage of SPRO responders ([1]; week 16, 12 mg BID): 45.1%
percentage of subjects with a ≥2 point change from baseline in SPRO ([1]; week 16, 12 mg BID): 57.4%
percentage of SPRO responders ([1]; week 20, 8 mg BID): 40.1%
percentage of subjects with a ≥2 point change from baseline in SPRO ([1]; week 20, 8 mg BID): 50.4%
percentage of SPRO responders ([1]; week 20, 12 mg BID): 52.5%
percentage of subjects with a ≥2 point change from baseline in SPRO ([1]; week 20, 12 mg BID): 63.6%
most common adverse events [2]: COVID-19, acne, nasopharyngitis, headache, asymptomatic COVID-19, creatinine phosphokinase increase, and upper respiratory tract infection
